In brackets after ≈: the same amount, converted by molar mass. Where two headings read alike, the source gives them in different places.
How the values were obtained:
Assay type in all cases: cell-based
[1] = tested on: E. coli KA797 cells carrying pUK21 with BlaC WT (Tat); experiment: microbe, parasite or virus in culture; conditions: Escherichia coli, antibiotic alone
[2] = tested on: E. coli KA797 cells carrying pUK21 with NmcA (pelB/Sec); experiment: microbe, parasite or virus in culture; conditions: Escherichia coli, antibiotic alone
[3] = tested on: E. coli KA797 cells carrying pUK21 with KPC-2 (Tat); experiment: microbe, parasite or virus in culture; conditions: Escherichia coli, antibiotic alone
[4] = tested on: E. coli KA797 cells carrying pUK21 vector without the β-lactamase gene; experiment: microbe, parasite or virus in culture; conditions: Escherichia coli; antibiotic alone; pUK21 without β-lactamase gene; read-out: MIC
[5] = tested on: E. coli KA797 cells carrying KPC-2 position 105 library; conditions: selection with labelled antibiotic
[6] = tested on: E. coli KA797 cells carrying TEM-1 position 105 library; conditions: for Fi MEM AVG: average of replicates
[7] = KPC-2 AA 105 = Trp (WT, reference)

## C[C@@H](O)[C@H]1C(=O)N2C(C(=O)O)=C(S[C@@H]3CN[C@H](C(=O)N(C)C)C3)[C@H](C)[C@H]12 [meropenem]
[1]
  MIC: 0.1 µg/mL (≈ 0.261 µM)
[2]
  MIC: 1.6 µg/mL (≈ 4.17 µM)
[3]
  MIC: 0.4 µg/mL (≈ 1.04 µM)
[4]
  MIC: 0.05 µg/mL (≈ 0.13 µM)
[5]; KPC-2 AA 105 = Ala
  Fi (relative fitness), Replicate 1: 0.581
  Fi AVG (average fitness of replicates): 0.217
[5]; KPC-2 AA 105 = Arg
  Fi (relative fitness), Replicate 1: 0.240
  Fi AVG (average fitness of replicates): 0.280
  Significance of average fitness: +
[5]; KPC-2 AA 105 = Asn
  Fi (relative fitness), Replicate 1: 0.449
  Fi AVG (average fitness of replicates): 0.201
[5]; KPC-2 AA 105 = Asp
  Fi (relative fitness), Replicate 1: -0.690
  Fi AVG (average fitness of replicates): -0.489
[5]; KPC-2 AA 105 = Cys
  Fi (relative fitness), Replicate 1: -0.271
  Fi AVG (average fitness of replicates): -0.750
  Significance of average fitness: -
[5]; KPC-2 AA 105 = Gln
  Fi (relative fitness), Replicate 1: -0.624
  Fi AVG (average fitness of replicates): -1.307
  Significance of average fitness: -
[5]; KPC-2 AA 105 = Glu
  Fi (relative fitness), Replicate 1: -0.509
  Fi AVG (average fitness of replicates): -0.226
[5]; KPC-2 AA 105 = Gly
  Fi AVG (average fitness of replicates): -0.037
[5]; KPC-2 AA 105 = His
  Fi (relative fitness), Replicate 1: -1.077
  Fi AVG (average fitness of replicates): -0.525
[5]; KPC-2 AA 105 = Ile
  Fi (relative fitness), Replicate 1: 0.107
  Fi AVG (average fitness of replicates): 0.391
  Significance of average fitness: +
[5]; KPC-2 AA 105 = Leu
  Fi (relative fitness), Replicate 1: -0.731
  Fi AVG (average fitness of replicates): -0.210
[5]; KPC-2 AA 105 = Lys
  Fi (relative fitness), Replicate 1: 0.268
  Fi AVG (average fitness of replicates): -0.089
[5]; KPC-2 AA 105 = Met
  Fi (relative fitness), Replicate 1: -1.083
  Fi AVG (average fitness of replicates): -0.791
[5]; KPC-2 AA 105 = Phe
  Fi (relative fitness), Replicate 1: -0.159
  Fi AVG (average fitness of replicates): 0.248
[5]; KPC-2 AA 105 = Pro
  Fi (relative fitness), Replicate 1: -0.148
  Fi AVG (average fitness of replicates): -1.195
  Significance of average fitness: -
[5]; KPC-2 AA 105 = Ser
  Fi (relative fitness), Replicate 1: 0.279
  Fi AVG (average fitness of replicates): -0.239
[5]; KPC-2 AA 105 = Thr
  Fi AVG (average fitness of replicates): -0.051
[5]; [7]
  Fi (relative fitness), Replicate 1: 0.000
  Fi AVG (average fitness of replicates): 0.000
[5]; KPC-2 AA 105 = Tyr
  Fi (relative fitness), Replicate 1: 0.109
  Fi AVG (average fitness of replicates): -0.474
[5]; KPC-2 AA 105 = Val
  Fi (relative fitness), Replicate 1: -1.754
  Fi AVG (average fitness of replicates): -0.973
[5]; KPC-2 WT (Trp 105), replicate 1
  WT abs Fi 1 (absolute fitness): 0.081
[5]; KPC-2 WT (Trp 105), replicate 2
  WT abs Fi 2 (absolute fitness): -0.069
[5]; KPC-2 WT (Trp 105), replicate 3
  WT abs Fi 3 (absolute fitness): 0.298
[6]; AA 105 Ala
  Fi MEM AVG: 0.062
[6]; AA 105 Ala, replicate 1
  Fi MEM 1: 0.046
[6]; AA 105 Ala, replicate 2
  Fi MEM 2: 0.488
[6]; AA 105 Ala, replicate 3
  Fi MEM 3: -0.350
[6]; AA 105 Arg
  Fi MEM AVG: 0.048
[6]; AA 105 Arg, replicate 1
  Fi MEM 1: 0.163
[6]; AA 105 Arg, replicate 2
  Fi MEM 2: 0.269
[6]; AA 105 Arg, replicate 3
  Fi MEM 3: -0.287
[6]; AA 105 Asn
  Fi MEM AVG: -0.031
[6]; AA 105 Asn, replicate 1
  Fi MEM 1: -0.022
[6]; AA 105 Asn, replicate 2
  Fi MEM 2: 0.493
[6]; AA 105 Asn, replicate 3
  Fi MEM 3: -0.563
[6]; AA 105 Asp
  Fi MEM AVG: -0.366
[6]; AA 105 Asp, replicate 1
  Fi MEM 1: -1.030
[6]; AA 105 Asp, replicate 2
  Fi MEM 2: 0.356
[6]; AA 105 Asp, replicate 3
  Fi MEM 3: -0.424
[6]; AA 105 Cys
  Fi MEM AVG: 0.031
[6]; AA 105 Cys, replicate 1
  Fi MEM 1: 0.333
[6]; AA 105 Cys, replicate 2
  Fi MEM 2: 0.230
[6]; AA 105 Cys, replicate 3
  Fi MEM 3: -0.470
[6]; AA 105 Gln
  Fi MEM AVG: -0.069
[6]; AA 105 Gln, replicate 1
  Fi MEM 1: -0.210
[6]; AA 105 Gln, replicate 2
  Fi MEM 2: 0.084
[6]; AA 105 Gln, replicate 3
  Fi MEM 3: -0.080
[6]; AA 105 Glu
  Fi MEM AVG: -0.063
[6]; AA 105 Glu, replicate 1
  Fi MEM 1: -0.084
[6]; AA 105 Glu, replicate 2
  Fi MEM 2: 0.140
[6]; AA 105 Glu, replicate 3
  Fi MEM 3: -0.245
[6]; AA 105 Gly
  Fi MEM AVG: -0.130
[6]; AA 105 Gly, replicate 1
  Fi MEM 1: -0.195
[6]; AA 105 Gly, replicate 2
  Fi MEM 2: 0.032
[6]; AA 105 Gly, replicate 3
  Fi MEM 3: -0.226
[6]; AA 105 His
  Fi MEM AVG: -0.172
[6]; AA 105 His, replicate 1
  Fi MEM 1: -0.391
[6]; AA 105 His, replicate 2
  Fi MEM 2: 0.351
[6]; AA 105 His, replicate 3
  Fi MEM 3: -0.475
[6]; AA 105 Ile
  Fi MEM AVG: 0.078
[6]; AA 105 Ile, replicate 1
  Fi MEM 1: 0.231
[6]; AA 105 Ile, replicate 2
  Fi MEM 2: 0.143
[6]; AA 105 Ile, replicate 3
  Fi MEM 3: -0.140
[6]; AA 105 Leu
  Fi MEM AVG: -0.036
[6]; AA 105 Leu, replicate 1
  Fi MEM 1: -0.102
[6]; AA 105 Leu, replicate 2
  Fi MEM 2: 0.170
[6]; AA 105 Leu, replicate 3
  Fi MEM 3: -0.177
[6]; AA 105 Lys
  Fi MEM AVG: -0.052
[6]; AA 105 Lys, replicate 1
  Fi MEM 1: -0.122
[6]; AA 105 Lys, replicate 2
  Fi MEM 2: 0.122
[6]; AA 105 Lys, replicate 3
  Fi MEM 3: -0.155
[6]; AA 105 Met
  Fi MEM AVG: -0.379
[6]; AA 105 Met, replicate 1
  Fi MEM 1: -0.840
[6]; AA 105 Met, replicate 2
  Fi MEM 2: 0.139
[6]; AA 105 Met, replicate 3
  Fi MEM 3: -0.436
[6]; AA 105 Phe
  Fi MEM AVG: -0.175
[6]; AA 105 Phe, replicate 1
  Fi MEM 1: 0.171
[6]; AA 105 Phe, replicate 2
  Fi MEM 2: -0.315
[6]; AA 105 Phe, replicate 3
  Fi MEM 3: -0.381
[6]; AA 105 Pro
  Fi MEM AVG: -0.026
[6]; AA 105 Pro, replicate 1
  Fi MEM 1: 0.015
[6]; AA 105 Pro, replicate 2
  Fi MEM 2: 0.091
[6]; AA 105 Pro, replicate 3
  Fi MEM 3: -0.184
[6]; AA 105 Ser
  Fi MEM AVG: -0.010
[6]; AA 105 Ser, replicate 1
  Fi MEM 1: 0.139
[6]; AA 105 Ser, replicate 2
  Fi MEM 2: 0.033
[6]; AA 105 Ser, replicate 3
  Fi MEM 3: -0.203
[6]; AA 105 Thr
  Fi MEM AVG: -0.084
[6]; AA 105 Thr, replicate 1
  Fi MEM 1: -0.289
[6]; AA 105 Thr, replicate 2
  Fi MEM 2: 0.235
[6]; AA 105 Thr, replicate 3
  Fi MEM 3: -0.199
[6]; AA 105 Trp
  Fi MEM AVG: -0.176
[6]; AA 105 Trp, replicate 1
  Fi MEM 1: -0.657
[6]; AA 105 Trp, replicate 2
  Fi MEM 2: 0.184
[6]; AA 105 Trp, replicate 3
  Fi MEM 3: -0.056
[6]; AA 105 Tyr
  Fi MEM AVG: 0.000
[6]; AA 105 Tyr, replicate 1
  Fi MEM 1: 0.000
[6]; AA 105 Tyr, replicate 2
  Fi MEM 2: 0.000
[6]; AA 105 Tyr, replicate 3
  Fi MEM 3: 0.000
[6]; AA 105 Val
  Fi MEM AVG: -0.088
[6]; AA 105 Val, replicate 1
  Fi MEM 1: -0.115
[6]; AA 105 Val, replicate 2
  Fi MEM 2: 0.193
[6]; AA 105 Val, replicate 3
  Fi MEM 3: -0.342
[6]; absolute fitness of TEM-1 WT, MEM, replicate 1
  WT abs Fi 1: 0.006
[6]; absolute fitness of TEM-1 WT, MEM, replicate 2
  WT abs Fi 2: -0.204
[6]; absolute fitness of TEM-1 WT, MEM, replicate 3
  WT abs Fi 3: 0.439
